Measured values: PMC9917862 (International Journal of Molecular Sciences, 2023)
Entries after “also recorded” stand apart in the source; their conditions may differ. Where two headings read alike, the source gives them in different places.

Columns and labels:
physchem [1] = assay: physchem
physchem [2] = conditions: pH 2, thermodynamic from solid
[3] = Calculated distribution of species in different protonation states; type: physicochemical
[4] = molecular target: T1, human serum albumin (HSA) (Homo sapiens, UniProt P02768); assay: Ultrafiltration-UV-vis with HSA; type: in vitro ADME; conditions: for protein bound fraction: pH 7.4 (PBS), 25 °C
T1 construct: purchased Sigma–Aldrich A8763

physchem [5] = conditions: pH 2, logD2.0
physchem [6] = assay: physchem; remark: listed apart in the source
[7] = molecular target: T2, α1-acid glycoprotein (AGP) (Homo sapiens, UniProt P02763); assay: Dipyridamole (DIP) displacement from AGP, fluorescence anisotropy; type: binding; conditions: cAGP = 2.0 μM; cDIP = 1.0 μM; pH 7.4 (PBS); 25 °C
T2 construct: purchased Sigma–Aldrich G9885

[8] = Proton dissociation constants by pH-potentiometry; type: physicochemical
Description: pH-potentiometric titrations of the antiviral agents were carried out similarly to our former works.

[9] = test system: α1-acid glycoprotein (AGP); conditions: human
[10] = test system: human blood serum (HMM fraction); conditions: pH 7.4
[11] = molecular target: T2, α1-acid glycoprotein (AGP); assay: Steady-state fluorometry, quenching of AGP fluorescence; type: binding; conditions: for quenching of the fluorescence of AGP: pH 7.4 (PBS), 25 °C
[12] = molecular target: T3, human serum albumin (HSA), site I (Trp-214) (Homo sapiens, UniProt P02768); assay: Steady-state fluorometry, quenching of HSA Trp-214 fluorescence; type: binding; conditions: pH 7.4 (PBS), 25 °C
T3 construct: purchased Sigma–Aldrich A8763

HSA + AGP = conditions: human, 200 μM, pH 7.4
human serum proteins = conditions: cited from earlier work
[13] = Proton dissociation constants by UV-vis titration; type: physicochemical
Description: An Agilent Carry 8454 diode array spectrophotometer was used to obtain UV-vis spectra in the interval 190–1100 nm, the path length (l) was 1 cm. The spectrophotometric titrations were performed with samples containing 25–200 μM compound over the pH range 2.0–11.5 at an ionic strength of 0.10 M (KCl) and at 25 °C. Proton dissociation constants together with the individual molar absorbance spectra were calculated with the computer program PSEQUAD [52]. The program requires the following input data: measured spectra together with the corresponding pH and analytical (total) concentration of the compounds; species matrix, with approximate protonation constant(s) and the absorbing species need to be defined. The Newton–Raphson iterative method was used to obtain protonation constant(s) with standard deviations and molar spectra of the individual species.

HSA site I = molecular target: T4, HSA site I (Homo sapiens, UniProt P02768); assay: Warfarin (WF) site marker displacement from HSA; type: binding; conditions: HSA-WF 1:1; pH 7.4 (PBS); 25 °C
T4 construct: purchased Sigma–Aldrich A8763

[14] = Aqueous stability of FAVI and IMA followed by UV-vis spectra; type: physicochemical; conditions: pH 2 and 7.4; 25 °C
[15] = molecular target: T2, α1-acid glycoprotein (AGP); assay: Frontal analysis capillary electrophoresis (FACE) with AGP; type: binding; conditions: pH 7.4 (PBS); 25 °C
[16] = molecular target: T1, human serum albumin (HSA); assay: Frontal analysis capillary electrophoresis (FACE) with HSA; type: binding
AGP [17] = conditions: cited from earlier work
HSA site II = molecular target: T5, HSA site II (Homo sapiens, UniProt P02768); assay: Dansylglycine (DG) site marker displacement from HSA; type: binding
T5 construct: purchased Sigma–Aldrich A8763

AGP [18] = conditions: pH 4.95 (acetate), 25 °C, NMR spin-lattice relaxation times; cited from earlier work
HSA (fatty acid free) = conditions: pH 7; cited from earlier work
[19] = cited from earlier work
AGP (native) = conditions: cited from earlier work
AGP (F1-S) = conditions: pH 7.4 (ringer), 37 °C, circular dichroism; cited from earlier work
AGP [20] = conditions: pH 4.95 (acetate), 25 °C, ITC; cited from earlier work
plasma protein = conditions: cited from earlier work
[21] = Aqueous stability of MOLNU followed by 1H NMR; type: physicochemical; conditions: 25 °C; for hydrolyzed products: in 5 days
Description: Molnupiravir, one of the title compounds, contains an ester functional group that may hydrolyze under certain conditions. Therefore, the aqueous stability of MOLNU was investigated as a first step at pH 2.0, 7.4, and 12.0 by ^1H NMR spectroscopy.
^1H NMR spectroscopic measurements were carried out on a Bruker Avance III HD instrument (Billerica, MA, USA). The spectra were recorded with WATERGATE water suppression pulse sequence using DSS internal standard and 10% (v/v) D2O. Aqueous stability of MOLNU was followed at pH 2.0, 7.4 and 12.0.

human transferrin = molecular target: T6, human transferrin (Homo sapiens, UniProt P02787); assay: Hydrolysis of MOLNU in the presence of transferrin, 1H NMR; type: in vitro ADME; conditions: 45 μM human transferrin; same behavior = no hydrolysis as with HSA
T6 construct: purchased Sigma–Aldrich T3309

HSA = molecular target: T7, HSA (Homo sapiens, UniProt P02768); assay: Hydrolysis of MOLNU in the presence of HSA, 1H NMR; type: in vitro ADME; conditions: HSA 630 μM; 1 mM MOLNU; PBS
T7 construct: purchased Sigma–Aldrich A8763

[22] = pH 7.4, calculated from pKa values
[23] = pH 2.0, calculated from pKa values
[24] = pH 7.4, using pKa4 = 7.7 determined by Szakács et al. [48]

T2 sequence (P02763 19-201): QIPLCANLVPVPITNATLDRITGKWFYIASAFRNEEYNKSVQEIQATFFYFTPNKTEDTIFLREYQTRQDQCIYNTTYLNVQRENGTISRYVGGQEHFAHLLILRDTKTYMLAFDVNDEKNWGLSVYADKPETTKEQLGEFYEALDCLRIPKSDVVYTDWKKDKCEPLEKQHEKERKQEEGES
T1 sequence (P02768 25-609): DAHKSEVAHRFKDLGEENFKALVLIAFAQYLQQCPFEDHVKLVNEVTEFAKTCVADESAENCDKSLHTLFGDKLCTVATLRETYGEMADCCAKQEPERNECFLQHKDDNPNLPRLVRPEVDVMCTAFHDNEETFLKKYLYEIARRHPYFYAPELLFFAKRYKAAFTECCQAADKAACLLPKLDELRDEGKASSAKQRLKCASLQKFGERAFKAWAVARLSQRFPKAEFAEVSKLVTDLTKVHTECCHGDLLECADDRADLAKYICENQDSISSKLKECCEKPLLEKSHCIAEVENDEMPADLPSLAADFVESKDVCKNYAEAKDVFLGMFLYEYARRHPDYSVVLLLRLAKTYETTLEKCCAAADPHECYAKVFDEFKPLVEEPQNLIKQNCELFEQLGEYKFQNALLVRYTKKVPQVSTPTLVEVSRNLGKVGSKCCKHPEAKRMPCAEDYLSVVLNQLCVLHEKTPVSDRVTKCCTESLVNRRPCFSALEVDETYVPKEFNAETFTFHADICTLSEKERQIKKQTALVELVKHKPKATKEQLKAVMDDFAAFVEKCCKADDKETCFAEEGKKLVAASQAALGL
T3 sequence (P02768 25-609): as above
T7 sequence (P02768 25-609): as above
T5 sequence (P02768 25-609): as above
T4 sequence (P02768 25-609): as above
T6 sequence (P02787 20-698): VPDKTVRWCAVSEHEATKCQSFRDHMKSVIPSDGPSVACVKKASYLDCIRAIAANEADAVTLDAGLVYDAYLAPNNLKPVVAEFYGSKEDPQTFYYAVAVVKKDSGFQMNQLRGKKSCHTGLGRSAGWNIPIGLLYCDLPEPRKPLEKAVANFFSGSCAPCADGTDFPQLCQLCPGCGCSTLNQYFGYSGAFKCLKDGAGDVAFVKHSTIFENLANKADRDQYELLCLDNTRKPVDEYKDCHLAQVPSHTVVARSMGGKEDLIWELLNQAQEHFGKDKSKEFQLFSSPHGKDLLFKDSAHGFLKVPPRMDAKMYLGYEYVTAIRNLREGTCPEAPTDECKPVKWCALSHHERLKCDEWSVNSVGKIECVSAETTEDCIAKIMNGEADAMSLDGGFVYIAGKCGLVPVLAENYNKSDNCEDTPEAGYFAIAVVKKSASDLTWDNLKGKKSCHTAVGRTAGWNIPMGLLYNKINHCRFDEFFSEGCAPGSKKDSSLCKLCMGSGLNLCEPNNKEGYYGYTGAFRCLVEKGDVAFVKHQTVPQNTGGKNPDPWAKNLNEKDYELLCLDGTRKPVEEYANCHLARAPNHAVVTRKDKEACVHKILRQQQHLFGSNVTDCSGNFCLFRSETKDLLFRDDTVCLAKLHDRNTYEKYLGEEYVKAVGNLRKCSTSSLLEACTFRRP

NC(=O)c1nc(F)c[nH]c1=O [FAVI, favipiravir]
pKa (physchem [1]): 5.1
solubility thermodynamic (physchem [2]): ≥ 10 mM
species L− [3, 22]: L^−:100%
protein bound fraction ([4]; HSA 50 μM, 50 μM compound, IMA corrected for 85% filter adhesion): < 2%
protein bound fraction ([4]; HSA 630 μM, 200 μM compound): < 2%
bound fraction ([4]; different concentrations of HSA): less than 2%
logD at 2 h (physchem [5]): 0.15
pKa (physchem [6]): 5.17
displacement of DIP from AGP [7]: no interaction between the studied species takes place
pKa ([8]; pKa1 (pHm)): 5.11
bound fraction [9]: less than 2%
protein bound fraction ([9]; 25 μM): < 2%
protein bound fraction ([9]; 50 μM): < 2%
protein bound fraction ([9]; 100 μM): < 2%
protein bound fraction ([9]; 200 μM): < 2%
protein bound fraction ([10]; 200 μM): 22 ± 2%
quenching of the fluorescence of AGP ([11]; 91 equiv. of compound): 6%
quenching of the fluorescence of AGP [11]: did not quench
quenching of HSA (Trp-214) fluorescence [12]: did not significantly quench
quenching of HSA (Trp-214) fluorescence ([12]; listed as Favipiravir): did not quench
protein bound fraction (HSA + AGP): 2 ± 1%
binding attributed to AGP (human serum proteins): 6.5%
binding attributed to HSA (human serum proteins): 65%
pKa ([13]; pKa1 (UV-vis)): 5.08
displacement of WF from HSA site I (HSA site I): no competition
stable in aqueous media at least for [14]: ≥ 30 h
binding to AGP in FACE [15]: neither of the two proteins are involved in binding of FAVI
binding to HSA in FACE ([16]; up to 5 equiv. albumin, pH 7.4 (PBS), 25 °C): neither of the two proteins are involved in binding of FAVI

Cc1ccc(NC(=O)c2ccc(CN3CCN(C)CC3)cc2)cc1Nc1nccc(-c2cccnc2)n1 [IMA, imatinib]
logK′ (AGP [17]): 6.69
pKa (physchem [1]): 7.9
displacement of DG from HSA site II (HSA site II; pH 7.4): unable to displace DG
species H2L2+ [3, 23]: H2L^2+: 5%
species H3L3+ [3, 23]: 62%
species H4L4+ [3, 23]: 33%
species HL+ [3, 22]: 76%
species HL+ [3, 24]: 67%
species L [3, 24]: 33%
logK′ (AGP [18]): 3.51
K′ (HSA (fatty acid free)): 1.2 × 10^5 1.0 × 10^5
pKa ([8]; I = 0.1 M (KCl), 25 °C, read-out: pKa2 (pHm)): 3.06
pKa ([8]; I = 0.1 M (KCl), 25 °C, read-out: pKa3 (pHm)): 3.86
pKa ([8]; I = 0.1 M (KCl), 25 °C, read-out: pKa4 (pHm)): > 7
pKa4 ([19]; pH-potentiometry, I = 0.15 M NaCl, ref 48 (Szakács et al.)): 7.7
logK′ (AGP (native); AGP (native), pH 7.4 (ringer), 37 °C, circular dichroism): 6.38
K′ (AGP (native); pH 7.4): 2.4 × 10^6 1.7 × 10^6
logK′ (AGP (F1-S)): 6.23
ΔlogK′, effect of long-term storage of AGP in plastic microtubes [11]: 0.2
pKa ([13]; I = 0.1 M (KCl), 25 °C, read-out: pKa1 (UV-vis)): 1.72
stable in aqueous media at least for [14]: ≥ 30 h
binding to HSA in FACE ([16]; pH 7.4): no considerable binding
K′ (AGP [20]): 8.7 × 10^2
logK′ (AGP [20]): 2.94

O=c1nc(NO)ccn1[C@@H]1O[C@H](CO)[C@@H](O)[C@H]1O [EIDD-1931, N(4)-hydroxycytidine]
plasma protein binding (plasma protein): No plasma protein binding was observed

CC(C)C(=O)O [isobutyric acid]
pKa ([19]; I = 0.1 M NaNO3): 4.67

CC(C)C(=O)OC[C@H]1O[C@@H](n2ccc(NO)nc2=O)[C@H](O)[C@@H]1O [MOLNU, molnupiravir]
solubility thermodynamic (physchem [2]): ≥ 10 mM
displacement of DG from HSA site II (HSA site II; HSA-DG 1:1, pH 7.4 (PBS), 25 °C): could not displace DG
species H2L+ [3, 23]: 58%
species HL [3, 23]: 42%
species HL [3, 22]: HL: 100%
protein bound fraction ([4]; HSA 630 μM, 30 μM compound): < 2%
logD at 2 h (physchem [5]): -0.68 ± 0.02
pKa ([8]; pKa1 (pHm)): 2.14
pKa ([8]; pKa2 (pHm)): 10.2
hydrolyzed products ([21]; pH 2.0): 8%
hydrolyzed products ([21]; pH 7.4): 2%
time within which MOLNU hydrolyzes completely to isobutyrate and EIDD-1931 ([21]; pH 12.0, cMOLNU = 1 mM): ≤ 30 min
hydrolysis of MOLNU within two days (human transferrin): The same behavior was observed
protein bound fraction ([10]; 30 μM): less than 2%
quenching of the fluorescence of AGP [11]: did not quench
quenching of HSA (Trp-214) fluorescence [12]: did not significantly quench
hydrolysis of MOLNU within two days (HSA): Neither of the two media could induce hydrolysis; also recorded: could not hydrolyze the ester bond
pKa ([13]; pKa1 (UV-vis)): 2.11
pKa ([13]; pKa2 (UV-vis)): 10.3
displacement of WF from HSA site I (HSA site I): no competition
